System: HUVEC cells
Experiment: Human Umbilical Vein Endothelial Cell (HUVEC) proliferation assay (BrdU incorporation)
Format: cell-based
Conditions: growth stimulated with VEGF, 72 hrs, read-out: Inhibition of HUVEC proliferation IC50
Protocol: Human Umbilical Vein Endothelial Cell (HUVEC) Proliferation Assay (BrdU Incorporation) Materials
HUVEC cells and EGM-MV (Endothelial cell growth medium—microvascular) were purchased from Clonetics (San Diego, Calif.). VEGF and bFGF were purchased from R&D Systems (Minneapolis, Minn.). Anti-BrdU antibody was obtained from Chemicon International (Temecula, Calif.).
HUVECs were routinely maintained in EGM-MV medium and were used within passage 7. HUVECs were plated at a density of 2500 cells/well in M199 medium containing 5% FBS (Hyclone) in type I collagen coated plate (Becton Dickinson). The plate was incubated at 37° C. overnight. The medium was removed by aspiration, and test compounds were added to each well in a volume of 0.1 ml/well in serum-free M199 medium. Compound concentrations ranged from 1.5 nM to 30 micromolar. The plate was incubated for 30 min at 37° C. Another 0.1 ml of serum-free M199 medium containing BSA and VEGF (or bFGF) was added to give a final concentration of 0.1% BSA and 10 ng/ml VEGF (0.3 ng/ml bFGF). The plate was incubated at 37° C. for 72 hrs. BrdU was added to each well after the first 48 hrs to give a concentration of 10 micromolar. The colorimetric ELISA assay was performed according to manufacturer's (Roche Molecular Sciences) instructions, with detection by absorbance reading at 450 nm. Results were plotted as concentration of test compound vs. absorbance to give an IC50 value for inhibition of BrdU incorporation.

Structure (SMILES) | IC50
CCS(=O)(=O)c1ccc(OC)c(Nc2ncc(-c3cccc(OC4CCOC4)c3)o2)c1 (stereo not drawn) [Example 167, N-[5-(ethylsulfonyl)-2-methoxyphenyl]-5-[3-(tetrahydrofuran-3-yloxy)phenyl]-1,3-oxazol-2-amine] | < 1 µM
CCS(=O)(=O)c1ccc(OC)c(Nc2ncc(-c3cccc(-c4cccs4)c3)o2)c1 [Example 172, N-[5-(ethylsulfonyl)-2-methoxyphenyl]-5-(3-thien-2-ylphenyl)-1,3-oxazol-2-amine] | < 0.5 µM
CCS(=O)(=O)c1ccc(OC)c(Nc2ncc(-c3cccc(-c4ccsc4)c3)o2)c1 [Example 173, N-[5-(ethylsulfonyl)-2-methoxyphenyl]-5-(3-thien-3-ylphenyl)-1,3-oxazol-2-amine] | < 0.5 µM
CCS(=O)(=O)c1ccc(OC)c(Nc2ncc(-c3cccc(-c4cccnc4)c3)o2)c1 [Example 174, N-[5-(ethylsulfonyl)-2-methoxyphenyl]-5-(3-pyridin-3-ylphenyl)-1,3-oxazol-2-amine] | < 1 µM
C=Cc1cccc(-c2cnc(Nc3cc(S(=O)(=O)CC)ccc3OC)o2)c1 [Example 175, N-[5-(ethylsulfonyl)-2-methoxyphenyl]-5-(3-vinylphenyl)-1,3-oxazol-2-amine] | < 1 µM
CCS(=O)(=O)c1ccc(OC)c(Nc2ncc(-c3cccc(-c4ccccn4)c3)o2)c1 [Example 178, N-[5-(ethylsulfonyl)-2-methoxyphenyl]-5-(3-pyridin-2-ylphenyl)-1,3-oxazol-2-amine] | < 0.5 µM
CCS(=O)(=O)c1ccc(OC)c(Nc2ncc(-c3cccc(-c4cncn4C)c3)o2)c1 [Example 179, N-[5-(ethylsulfonyl)-2-methoxyphenyl]-5-[3-(1-methyl-1H-imidazol-5-yl)phenyl]-1,3-oxazol-2-amine] | < 0.5 µM
CCS(=O)(=O)c1ccc(OC)c(Nc2ncc(-c3cccc(-c4ccccc4)c3)o2)c1 [Example 180, 5-(1,1′-biphenyl-3-yl)-N-[5-(ethylsulfonyl)-2-methoxyphenyl]-1,3-oxazol-2-amine] | < 0.5 µM
CCS(=O)(=O)c1ccc(OC)c(Nc2ncc(-c3cccc(-c4ccco4)c3)o2)c1 [Example 181, N-[5-(ethylsulfonyl)-2-methoxyphenyl]-5-[3-(2-furyl)phenyl]-1,3-oxazol-2-amine] | < 0.5 µM
CCS(=O)(=O)c1ccc(OC)c(Nc2ncc(-c3cccc(-c4ccc(F)cc4)c3)o2)c1 [Example 183, N-[5-(ethylsulfonyl)-2-methoxyphenyl]-5-(4′-fluoro-1,1′-biphenyl-3-yl)-1,3-oxazol-2-amine] | < 0.5 µM
CCS(=O)(=O)c1ccc(OC)c(Nc2ncc(-c3cccc(-c4ccc5c(c4)CCO5)c3)o2)c1 [Example 184, 5-[3-(2,3-dihydro-1-benzofuran-5-yl)phenyl]-N-[5-(ethylsulfonyl)-2-methoxyphenyl]-1,3-oxazol-2-amine] | < 0.5 µM
COc1ccc(S(N)(=O)=O)cc1Nc1ncc(-c2cccc(-c3ccccc3)c2)o1 [Example 187, 3-{[5-(1,1′-biphenyl-3-yl)-1,3-oxazol-2-yl]amino}-4-methoxybenzenesulfonamide] | < 0.5 µM
CNS(=O)(=O)c1ccc(OC)c(Nc2ncc(-c3cccc(-c4ccc(F)cc4)c3)o2)c1 [Example 189, 3-{[5-(4′-fluoro-1,1′-biphenyl-3-yl)-1,3-oxazol-2-yl]amino}-4-methoxy-N-methylbenzenesulfonamide] | < 0.5 µM
CCC(CC)S(=O)(=O)c1ccc(OC)c(Nc2ncc(-c3cccc(-c4ccccn4)c3)o2)c1 [Example 192, N-{5-[(1-ethylpropyl)sulfonyl]-2-methoxyphenyl}-5-(3-pyridin-2-ylphenyl)-1,3-oxazol-2-amine] | < 1 µM
COc1ccc(S(=O)(=O)C(C)C)cc1Nc1ncc(-c2cccc(-c3ccccn3)c2)o1 [Example 193, N-[5-(isopropylsulfonyl)-2-methoxyphenyl]-5-(3-pyridin-2-ylphenyl)-1,3-oxazol-2-amine] | < 1 µM
COc1ccc(S(=O)(=O)C(C)c2ccncc2)cc1Nc1ncc(-c2cccc(-c3ccccc3)c2)o1 (stereo not drawn) [Example 196, 5-(1,1′-biphenyl-3-yl)-N-{2-methoxy-5-[(1-pyridin-4-ylethyl)sulfonyl]phenyl}-1,3-oxazol-2-amine] | < 0.5 µM
COc1cc(Nc2ncc(-c3cccc(-c4ccccc4)c3)o2)cc(OC)c1OC [Example 199, 5-(1,1′-biphenyl-3-yl)-N-(3,4,5-trimethoxyphenyl)-1,3-oxazol-2-amine] | < 0.5 µM
CCS(=O)(=O)c1ccc(OC)c(Nc2ncc(-c3cccc(-c4cccc(F)c4)c3)o2)c1 [Example 207, N-[5-(ethylsulfonyl)-2-methoxyphenyl]-5-(3′-fluoro-1,1′-biphenyl-3-yl)-1,3-oxazol-2-amine] | < 0.5 µM
COc1ccc(S(N)(=O)=O)cc1Nc1ncc(-c2cccc(-c3cccc(F)c3)c2)o1 [Example 214, 3-{[5-(3′-fluoro-1,1′-biphenyl-3-yl)-1,3-oxazol-2-yl]amino}-4-methoxybenzenesulfonamide] | < 1 µM
CCS(=O)(=O)c1ccc(OC)c(Nc2ncc(-c3cccc(-c4ccccc4F)c3)o2)c1 [Example 215, N-[5-(ethylsulfonyl)-2-methoxyphenyl]-5-(2′-fluoro-1,1′-biphenyl-3-yl)-1,3-oxazol-2-amine] | < 0.5 µM
CCS(=O)(=O)c1ccc(OC)c(Nc2ncc(-c3cccc(-c4ccccc4Cl)c3)o2)c1 [Example 216, 5-(2′-chloro-1,1′-biphenyl-3-yl)-N-[5-(ethylsulfonyl)-2-methoxyphenyl]-1,3-oxazol-2-amine] | < 0.5 µM
CCNS(=O)(=O)c1ccc(OC)c(Nc2ncc(-c3cccc(-c4ccccn4)c3)o2)c1 [Example 218, N-ethyl-4-methoxy-3-{[5-(3-pyridin-2-ylphenyl)-1,3-oxazol-2-yl]amino}benzenesulfonamide] | < 0.5 µM
COc1ccc(S(=O)(=O)NCC2CC2)cc1Nc1ncc(-c2cccc(-c3ccccn3)c2)o1 [Example 221, N-(cyclopropylmethyl)-4-methoxy-3-{[5-(3-pyridin-2-ylphenyl)-1,3-oxazol-2-yl]amino}benzenesulfonamide] | < 1 µM
COc1ccc(S(=O)(=O)NC(C)C)cc1Nc1ncc(-c2cccc(-c3cccnc3)c2)o1 [Example 223, N-isopropyl-4-methoxy-3-{[5-(3-pyridin-3-ylphenyl)-1,3-oxazol-2-yl]amino}benzenesulfonamide] | < 0.5 µM
COc1ccc(S(=O)(=O)NC(C)C)cc1Nc1ncc(-c2cccc(-c3ccccc3)c2)o1 [Example 224, 3-{[5-(1,1′-biphenyl-3-yl)-1,3-oxazoI-2-yl]amino}-N-isopropyl-4-methoxybenzenesulfonamide] | < 0.5 µM
COc1ccc(S(=O)(=O)N(C)C)cc1Nc1ncc(-c2cccc(-c3ccccc3)c2)o1 [Example 225, 3-{[5-(1,1′-biphenyl-3-yl)-1,3-oxazol-2-yl]amino}-4-methoxy-N,N-dimethylbenzenesulfonamide] | < 0.5 µM
COc1ccc(S(=O)(=O)NC2CC2)cc1Nc1ncc(-c2cccc(-c3ccccc3)c2)o1 [Example 226, 3-{[5-(1,1′-biphenyl-3-yl)-1,3-oxazol-2-yl]amino}-N-cyclopropyl-4-methoxybenzenesulfonamide] | < 0.5 µM
CCCCNS(=O)(=O)c1ccc(OC)c(Nc2ncc(-c3cccc(-c4ccccc4)c3)o2)c1 [Example 227, 3-{[5-(1,1′-biphenyl-3-yl)-1,3-oxazol-2-yl]amino}-N-butyl-4-methoxybenzenesulfonamide] | < 1 µM
CCN(CC)S(=O)(=O)c1ccc(OC)c(Nc2ncc(-c3cccc(-c4ccccc4)c3)o2)c1 [Example 228, 3-{[5-(1,1′-biphenyl-3-yl)-1,3-oxazol-2-yl]amino}-N,N-diethyl-4-methoxybenzenesulfonamide] | < 0.5 µM
COc1ccc(S(=O)(=O)NCC2CCCO2)cc1Nc1ncc(-c2cccc(-c3ccccc3)c2)o1 (stereo not drawn) [Example 229, 3-{[5-(1,1′-biphenyl-3-yl)-1,3-oxazol-2-yl]amino}-4-methoxy-N-(tetrahydrofuran-2-ylmethyl)benzenesulfonamide] | < 1 µM

Reference: patent US20070142437A1, “CHEMICAL COMPOUNDS” (priority 2005, published 2007)
